Assay results from PMC11213733, “Computational approaches identify a transcriptomic fingerprint of drug-induced structural cardiotoxicity” (Cell Biology and Toxicology, 2024).
Counter-ions that a name gives are not always drawn.

Assays:
[1] = test system: cardiac microtissues; assay: Transcriptomic profiling (mRNA-seq) and DESeq2 differential gene expression analysis in cardiac microtissues; details: absolute log2(Fold-Change) > 1, FDR p ≤ 0.05; for number of significant differentially expressed genes, 6hr high / number of significant differentially expressed genes, 48hr high / number of significant differentially expressed genes, 72hr high: high concentration; for number of significant differentially expressed genes, 6hr low / number of significant differentially expressed genes, 48hr low / number of significant differentially expressed genes, 72hr low: low concentration
[2] = ref FDA label, cited from earlier work; for Structural cardiotoxin?: FDA label references heart failure or a decrease in left ventricular ejection fraction; for Functional cardiotoxin?: compound annotation
[3] = test system: cardiac microtissues; assay: Ingenuity Pathway Analysis over-representation of differentially expressed genes (activation Z-score); assay type: cell-based, human; details: 48hr high; Group 1

With `O=C1CC2(CCCC2)CC(=O)N1CCCCN1CCN(c2ncccn2)CC1` [Buspirone HCl] the “number of significant differentially expressed genes, 6hr high” value [1] was 42, the “number of significant differentially expressed genes, 6hr low” value [1] was 10 and the “number of significant differentially expressed genes, 48hr high” value [1] was 14. The “number of significant differentially expressed genes, 48hr low” value [1] was 6, the “number of significant differentially expressed genes, 72hr high” value [1] was 8 and the “number of significant differentially expressed genes, 72hr low” value [1] was 4. The “Structural cardiotoxin?” value [2] was “N” and the “Functional cardiotoxin?” value [2] was “N”.

For `CN1CCN(C2=Nc3cc(Cl)ccc3Nc3ccccc32)CC1` [Clozapine], the “number of significant differentially expressed genes, 6hr high” value [1] was 16, the “number of significant differentially expressed genes, 6hr low” value [1] was 2 and the “number of significant differentially expressed genes, 48hr high” value [1] was 25. The “number of significant differentially expressed genes, 48hr low” value [1] was 4, the “number of significant differentially expressed genes, 72hr high” value [1] was 60 and the “number of significant differentially expressed genes, 72hr low” value [1] was 1. The “Functional cardiotoxin?” value [2] was “Y”.

For `C#Cc1cccc(Nc2ncnc3cc(OCCOC)c(OCCOC)cc23)c1` [Erlotinib], the “activation Z-score: Cardiac Hypertrophy Signaling” value [3] was -2.236, the “activation Z-score: Cell Cycle Control of Chromosomal Replication” value [3] was -3.742 and the “activation Z-score: Cell Cycle Regulation by BTG Family Proteins” value [3] was -2. The “activation Z-score: Cyclins and Cell Cycle Regulation” value [3] was -2.111, the “activation Z-score: D-myo-inositol-5-phosphate Metabolism” value [3] was -2.449 and the “activation Z-score: DNA Methylation and Transcriptional Repression Signaling” value [3] was -2.646. For the same compound, the “activation Z-score: Estrogen-mediated S-phase Entry” value [3] was -2.121, the “activation Z-score: Factors Promoting Cardiogenesis in Vertebrates” value [3] was -0.816 and the “activation Z-score: G-Protein Coupled Receptor Signaling” value [3] was -2.357. The “activation Z-score: GP6 Signaling Pathway” value [3] was -1.633, the “activation Z-score: Glioma Invasiveness Signaling” value [3] was -2 and the “activation Z-score: HIF1Î± Signaling” value [3] was -2.121. For the same compound, the “activation Z-score: HMGB1 Signaling” value [3] was -2.236, the “activation Z-score: Hepatic Fibrosis Signaling Pathway” value [3] was -2.138 and the “activation Z-score: ILK Signaling” value [3] was -1.134. For the same compound, the “activation Z-score: Insulin Secretion Signaling Pathway” value [3] was -2.121, the “activation Z-score: Integrin Signaling” value [3] was -2.449 and the “activation Z-score: Kinetochore Metaphase Signaling Pathway” value [3] was -3.402. The “activation Z-score: Mitotic Roles of Polo-Like Kinase” value [3] was -2.309, the “activation Z-score: Protein Kinase A Signaling” value [3] was -1.155 and the “activation Z-score: Pyridoxal 5'-phosphate Salvage Pathway” value [3] was -2.646. The “activation Z-score: RHOGDI Signaling” value [3] was 1.89, the “activation Z-score: Regulation Of The Epithelial Mesenchymal Transition By Growth Factors Pathway” value [3] was -2.449 and the “activation Z-score: Role of NFAT in Cardiac Hypertrophy” value [3] was -2. For the same compound, the “activation Z-score: Salvage Pathways of Pyrimidine Ribonucleotides” value [3] was -2.828, the “activation Z-score: Senescence Pathway” value [3] was 0.728 and the “activation Z-score: Sphingosine-1-phosphate Signaling” value [3] was -2. The “activation Z-score: Superpathway of Inositol Phosphate Compounds” value [3] was -2.449, the “activation Z-score: Thrombin Signaling” value [3] was -2.236 and the “activation Z-score: White Adipose Tissue Browning Pathway” value [3] was -1.633. The “activation Z-score: Wound Healing Signaling Pathway” value [3] was -2.111, the “activation Z-score: cAMP-mediated signaling” value [3] was -1.633 and the “activation Z-score: tRNA Charging” value [3] was 2.646. For the same compound, the “number of significant differentially expressed genes, 6hr high” value [1] was 56, the “number of significant differentially expressed genes, 6hr low” value [1] was 39 and the “number of significant differentially expressed genes, 48hr high” value [1] was 634. The “number of significant differentially expressed genes, 48hr low” value [1] was 152, the “number of significant differentially expressed genes, 72hr high” value [1] was 283 and the “number of significant differentially expressed genes, 72hr low” value [1] was 78. For the same compound, the “Structural cardiotoxin?” value [2] was “N” and the “Functional cardiotoxin?” value [2] was “Y”.

For `O=C(C1CCCCC1)N1CC(=O)N2CCc3ccccc3C2C1` (stereo not drawn) [Praziquantel], the “Structural cardiotoxin?” value [2] is listed as “N” and the “Functional cardiotoxin?” value [2] is listed as “N”.

For `CS(=O)(=O)c1ccc(C2=C(c3ccccc3)C(=O)OC2)cc1` [Rofecoxib], the “Structural cardiotoxin?” value [2] is given as “Y” and the “Functional cardiotoxin?” value [2] is given as “Y”.

In the case of `N#CC[C@H](C1CCCC1)n1cc(-c2ncnc3[nH]ccc23)cn1` [Ruxolitinib], the “Structural cardiotoxin?” value [2] is given as “N” and the “Functional cardiotoxin?” value [2] is given as “N”.

For `NC[C@H]1O[C@H](O[C@H]2[C@H](O)[C@@H](O[C@H]3O[C@H](CO)[C@@H](O)[C@H](N)[C@H]3O)[C@H](N)C[C@@H]2N)[C@H](N)C[C@@H]1O` [Tobramycin], the “Structural cardiotoxin?” value [2] is given as “N” and the “Functional cardiotoxin?” value [2] is given as “N”.

In the case of `CCCCNC(=O)NS(=O)(=O)c1ccc(C)cc1` [Tolbutamide], the “Structural cardiotoxin?” value [2] is given as “N” and the “Functional cardiotoxin?” value [2] is given as “N”.
